Measurements taken from US11834392B2, “KDM4B inhibitors for the treatment of inflammatory diseases and disorders” (MUSC FOUNDATION FOR RESEARCH DEVELOPMENT, priority 2019, dated 2023).
Entries after “also recorded” stand apart in the source; their conditions may differ.

How the values were obtained:
[1] = test system: bone marrow derived macrophages (BMDMs); experiment: In vitro periodontal disease inflammation model (IL-6 ELISA after A.a LPS challenge); type: cell-based, C57BL/6 mice; settings: for immunosuppressive action (pro-inflammatory cytokine response to A.a LPS): murine macrophages, A.a LPS challenge
H3K9me3 = H3K9me3 staining to confirm KDM4B inhibitory activity; type: cell-based
Primary BMDMs [2] = experiment: IL-10 expression by qRT-PCR in BMDMs; type: cell-based; settings: 50 μM 1 hour pre-treatment, A.a LPS 100 ng/mL, 24 hours
Protocol: Primary BMDMs were isolated and differentiated as previously described and were pre-treated with ML324 at 50 μM for 1 hour followed by A.a LPS (100 ng/mL). […] (FIG. 5D)

Primary BMDMs [3] = experiment: Macrophage morphology / polarization (phalloidin 488 and DAPI staining); type: cell-based; settings: 50 μM 1 hour pre-treatment, A.a LPS 100 ng/mL, 24 hours
Protocol: (§1) Primary BMDMs were isolated and differentiated as previously described and were pre-treated with ML324 at 50 uM for 1 hour followed by A.a LPS (100 ng/mL). 24 hours later, extracellular flux was analyzed using a seahorse XFe96 instrument and following metabolic analysis, cells were incubated with phalloidin 488 and DAPI. Representative images were acquired using the Hermes […] system at 10× for morphological analysis. N=4. […] Primary BMDMs were isolated and differentiated as previously described and were pre-treated with ML324 at 50 μM for 1 hour followed by A.a LPS (100 ng/mL). […] (FIG. 5D)

KDM4E = target: T1, KDM4E (Homo sapiens, UniProt B2RXH2); settings: in vitro; cited from earlier work
T1 sequence (B2RXH2 1-506): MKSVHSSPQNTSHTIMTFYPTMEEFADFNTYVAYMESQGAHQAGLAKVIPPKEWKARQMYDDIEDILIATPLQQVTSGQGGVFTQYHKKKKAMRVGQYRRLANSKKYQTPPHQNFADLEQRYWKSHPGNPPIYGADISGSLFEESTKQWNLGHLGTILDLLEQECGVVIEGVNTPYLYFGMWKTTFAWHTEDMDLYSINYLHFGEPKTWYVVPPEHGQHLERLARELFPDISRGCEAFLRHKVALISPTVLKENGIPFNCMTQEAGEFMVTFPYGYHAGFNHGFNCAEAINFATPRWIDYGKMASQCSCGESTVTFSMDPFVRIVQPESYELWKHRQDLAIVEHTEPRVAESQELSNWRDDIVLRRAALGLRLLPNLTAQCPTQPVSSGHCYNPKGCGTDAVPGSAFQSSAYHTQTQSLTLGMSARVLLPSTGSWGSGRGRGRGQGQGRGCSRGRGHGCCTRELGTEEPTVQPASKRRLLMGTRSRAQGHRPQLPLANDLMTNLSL

[4] = cited from earlier work
KDM4B = target: T2, KDM4B (Homo sapiens, UniProt O94953); experiment: KDM4B inhibition; type: biochemical
T2 sequence (O94953 1-1096): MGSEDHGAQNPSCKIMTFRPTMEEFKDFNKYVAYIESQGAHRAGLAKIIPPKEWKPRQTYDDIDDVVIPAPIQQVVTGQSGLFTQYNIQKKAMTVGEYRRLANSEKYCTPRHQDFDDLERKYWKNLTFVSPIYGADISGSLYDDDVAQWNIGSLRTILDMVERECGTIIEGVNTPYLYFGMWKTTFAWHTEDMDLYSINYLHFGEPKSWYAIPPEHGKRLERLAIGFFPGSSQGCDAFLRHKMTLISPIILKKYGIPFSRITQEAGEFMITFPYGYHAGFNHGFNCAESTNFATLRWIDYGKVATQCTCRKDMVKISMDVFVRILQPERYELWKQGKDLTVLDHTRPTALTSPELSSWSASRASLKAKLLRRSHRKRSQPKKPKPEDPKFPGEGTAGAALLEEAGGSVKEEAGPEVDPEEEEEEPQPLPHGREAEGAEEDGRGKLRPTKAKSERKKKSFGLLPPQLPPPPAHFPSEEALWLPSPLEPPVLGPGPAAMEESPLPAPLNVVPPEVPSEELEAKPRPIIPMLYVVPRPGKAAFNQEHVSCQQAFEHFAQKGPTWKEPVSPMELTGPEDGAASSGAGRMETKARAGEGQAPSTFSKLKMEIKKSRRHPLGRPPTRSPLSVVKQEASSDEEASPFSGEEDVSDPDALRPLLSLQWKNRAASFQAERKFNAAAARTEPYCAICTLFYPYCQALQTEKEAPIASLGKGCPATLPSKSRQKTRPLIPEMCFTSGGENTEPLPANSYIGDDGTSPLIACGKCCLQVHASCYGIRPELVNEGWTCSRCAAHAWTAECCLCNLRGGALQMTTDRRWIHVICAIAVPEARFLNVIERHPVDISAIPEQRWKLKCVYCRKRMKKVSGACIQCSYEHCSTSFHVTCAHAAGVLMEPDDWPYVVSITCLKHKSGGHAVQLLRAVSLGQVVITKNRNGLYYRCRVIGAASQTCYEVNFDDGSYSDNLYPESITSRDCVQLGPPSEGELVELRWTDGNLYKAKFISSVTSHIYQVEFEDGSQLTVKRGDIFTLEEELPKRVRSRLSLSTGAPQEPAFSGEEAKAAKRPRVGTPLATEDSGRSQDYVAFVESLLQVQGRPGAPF

osteoclast progenitors = experiment: Aa-LPS-induced osteoclastogenesis; type: cell-based
Source text: (§2) As such, KDM4B represents a new therapeutic target for treating hyper-inflammatory diseases that result in, for example, bone destruction.

Primary BMDMs [5] = experiment: Extracellular flux analysis (seahorse XFe96); type: cell-based
Protocol: as §1

herpes simplex virus = settings: mice, high doses; cited from earlier work
Solubility = type: physicochemical; settings: at effective doses
H3K4me = experiment: Global H3K4me levels in fluorescence-stained macrophages after Aa-LPS challenge; type: cell-based
Source text: as §2

cytomegalovirus = settings: mice, high doses; cited from earlier work

SMILES | dose-dependent immunosuppressive response to A.a LPS [1] | H3K9me3 expression / staining (H3K9me3) | IL-10 expression (mRNA) (Primary BMDMs [2]) | macrophage morphology / polarization (M1 phenotype) (Primary BMDMs [3]) | immunosuppressive action (pro-inflammatory cytokine response to A.a LPS) [1] | immunosuppressive action (pro-inflammatory cytokine response to A.a LPS) ([1]; listed as 1) | inhibition of KDM4E (KDM4E) | cell permeability [4] | IC50 (KDM4B) | activity toward KDM4B (KDM4B) | Aa-LPS-induced osteoclastogenesis (osteoclast progenitors) | glycolytic activity of LPS treated cells (Primary BMDMs [5]; 50 μM 1 hour pre-treatment, A.a LPS 100 ng/mL, 24 hours) | spare respiratory capacity (Primary BMDMs [5]; LPS with or without ML324, compared to PBS control) | viral replication of herpes simplex virus (herpes simplex virus) | solubility (Solubility) | global H3K4me levels following Aa-LPS challenge (H3K4me) | viral replication of cytomegalovirus (cytomegalovirus)
O=C(Nc1ccccc1C(=O)O)c1ccc(-c2ccccc2)cc1 [Compound 12, 2-([1,1′-biphenyl]-4-carboxamido)benzoic acid] | dose-dependent immunosuppressive response; also recorded: dose-dependent immunosuppressive effect | concurrent increase in H3K9me3; also recorded: increase in H3K9me3 staining | – | – | – | – | – | – | – | – | – | – | – | – | – | – | –
CN(C)CCCNC(=O)c1ccc(-c2cc(O)c3ncccc3c2)cc1 [ML324] | – | – | significantly higher IL-10 expression | alters macrophage polarization; also recorded: able to rescue this effect | decreases the pro-inflammatory cytokine response | immunosuppressive action | known to inhibit | good cell permeability | 4.9 µM | active | significant reduction | rescued this effect | reduced spare respiratory capacity | shown to inhibit viral replication | highly insoluble at effective doses | prevented by KDM4B inhibition | shown to inhibit viral replication
